# Measured values from US20090270259A1, “Novel Agrochemical Formulations” (priority 2005, published 2009).
# Assay: Determination of the active substance content inside the film (UV-vis in THF, with and without ethanol wash)
# Type: physicochemical
# Details: Ecoflex film of Example 1, washed in 15 ml ethanol, UV-vis intensity ratio at 244 nm and 290 nm
# Description: For applications for the controlled release of active substance, it is useful to determine the active substance content enclosed in the film more specifically.
# For this, 27.3 mg of a film charged with chlorpyrifos and prepared by the procedure described above were dissolved in 15 ml of tetrahydrofuran (THF), which is a good solvent both for the active substance and also for the polymer. 0.5 milliliters of this solution were further diluted to a volume of 20 ml with THF; a UV-vis spectrum was recorded for the dilute solution.
# In a comparison experiment, the film was firstly washed in 15 ml of ethanol and dried before being analyzed as described above in a solution of THF by means of UV-vis spectroscopy.
# Reference spectra were measured a series of THF solutions which, as well as 33.5 mg/l of Ecoflex® comprising Ecoflex® pellets, also comprised chlorpyrifos in concentrations of from 0 to 24 mg/l. A suitable comparison parameter which clearly reflects the chlorpyrifos content is the intensity ratio I2/I1 of characteristic peaks in the UV-vis spectrum at the wavelengths 244 nm and 290 nm.
smiles,measurement,setting,value
CCOP(=S)(OCC)Oc1nc(Cl)c(Cl)cc1Cl [chlorpyrifos],"chlorpyrifos used in the film preparation that remains in the film after washing with ethanol (enclosed fraction, released in a delayed manner)","dried, dissolved in THF",24%
same,"active substance washed away with ethanol (fraction on the film surface, directly available)",,76%
